Assay results reported in patent US4971965A, “Antibiotics TAN-1057” (Takeda Chemical Industries, Ltd., priority 1988, dated 1990).
≈ marks a conversion by molar mass, not a printed value. Like-named read-outs stand apart in the source and are kept apart here.

What was measured:
Assay in all cases: Antibacterial activity against clinically isolated S. aureus (agar dilution MIC, Table 2)
Format in all cases: cell-based
[1] = test system: Staphylococcus aureus TST-75
Description: (§1) DMPPC: Methicillin, KM: Kanamycin, GM: Gentamycin, EM: Erythromycin (Note
(§2) Determined by the agar dilution method. Medium: Mueller Hinton medium
(§3) (Difco, USA) Inoculum Size: 10^6 CFU/ml, 37° C.

[2] = test system: Staphylococcus aureus N62
Description: as §1, §2, §3

[3] = test system: Staphylococcus aureus N247-21
Description: as §1, §2, §3

[4] = test system: Staphylococcus aureus FDA 209P
Description: as §1, §2, §3

[5] = test system: Staphylococcus aureus N262
Description: as §1, §2, §3

[6] = test system: Staphylococcus aureus C3
Description: as §1, §2, §3

[7] = test system: Staphylococcus aureus C10
Description: as §1, §2, §3

[8] = test system: Staphylococcus aureus N83
Description: as §1, §2, §3

[9] = test system: Staphylococcus aureus N235
Description: as §1, §2, §3

[10] = test system: Staphylococcus aureus N247
Description: as §1, §2, §3

[11] = test system: Staphylococcus aureus N326
Description: as §1, §2, §3

[12] = test system: Staphylococcus aureus N129
Description: as §1, §2, §3

[13] = test system: Staphylococcus aureus N176-3
Description: as §1, §2, §3

[14] = test system: Staphylococcus aureus N176-6
Description: as §1, §2, §3

[15] = test system: Staphylococcus aureus N91
Description: as §1, §2, §3

[16] = test system: Staphylococcus aureus N237
Description: as §1, §2, §3

[17] = test system: Staphylococcus aureus C7
Description: as §1, §2, §3

[18] = test system: Staphylococcus aureus N267
Description: as §1, §2, §3

[19] = test system: Staphylococcus aureus N176
Description: as §1, §2, §3

[20] = test system: Staphylococcus aureus C4
Description: as §1, §2, §3

[21] = test system: Staphylococcus aureus N121
Description: as §1, §2, §3

[22] = test system: Staphylococcus aureus TS-65
Description: as §1, §2, §3

[23] = test system: Staphylococcus aureus N8
Description: as §1, §2, §3

[24] = test system: Staphylococcus aureus N51
Description: as §1, §2, §3

[25] = test system: Staphylococcus aureus N28
Description: as §1, §2, §3

[26] = test system: Staphylococcus aureus N247-16
Description: as §1, §2, §3

[27] = test system: Staphylococcus aureus N64
Description: as §1, §2, §3

CC[C@H]1OC(=O)[C@H](C)[C@@H](O[C@H]2C[C@@](C)(OC)[C@@H](O)[C@H](C)O2)[C@H](C)[C@@H](O[C@@H]2O[C@H](C)C[C@H](N(C)C)[C@H]2O)[C@](C)(O)C[C@@H](C)C(=O)[C@H](C)[C@@H](O)[C@]1(C)O [EM, Erythromycin]
MIC ([1]; Staphylococcus aureus, TST75): > 100 µg/mL | MIC ([2]; Staphylococcus aureus, N62): > 100 µg/mL | MIC ([3]; Staphylococcus aureus, N24721): 6.25 µg/mL (≈ 8.52 µM) | MIC ([4]; Staphylococcus aureus, FDA209P): 0.39 µg/mL (≈ 0.531 µM) | MIC ([5]; Staphylococcus aureus, N262): > 100 µg/mL | MIC ([6]; Staphylococcus aureus, C3): > 100 µg/mL | MIC ([7]; Staphylococcus aureus, C10): > 100 µg/mL | MIC ([8]; Staphylococcus aureus, N83): > 100 µg/mL | MIC ([9]; Staphylococcus aureus, N235): > 100 µg/mL | MIC ([10]; Staphylococcus aureus, N247): 6.25 µg/mL (≈ 8.52 µM) | MIC ([11]; Staphylococcus aureus, N326): > 100 µg/mL | MIC ([12]; Staphylococcus aureus, N129): 0.39 µg/mL (≈ 0.531 µM) | MIC ([13]; Staphylococcus aureus, N1763): > 100 µg/mL | MIC ([14]; Staphylococcus aureus, N1766): > 100 µg/mL | MIC ([15]; Staphylococcus aureus, N91): 0.39 µg/mL (≈ 0.531 µM) | MIC ([16]; Staphylococcus aureus, N237): > 100 µg/mL | MIC ([17]; Staphylococcus aureus, C7): 12.5 µg/mL (≈ 17 µM) | MIC ([18]; Staphylococcus aureus, N267): > 100 µg/mL | MIC ([19]; Staphylococcus aureus, N176): > 100 µg/mL | MIC ([20]; Staphylococcus aureus, C4): 0.39 µg/mL (≈ 0.531 µM) | MIC ([21]; Staphylococcus aureus, N121): 0.39 µg/mL (≈ 0.531 µM) | MIC ([22]; Staphylococcus aureus, TS65): > 100 µg/mL | MIC ([23]; Staphylococcus aureus, N8): > 100 µg/mL | MIC ([24]; Staphylococcus aureus, N51): 0.39 µg/mL (≈ 0.531 µM) | MIC ([25]; Staphylococcus aureus, N28): > 100 µg/mL | MIC ([26]; Staphylococcus aureus, N24716): 3.13 µg/mL (≈ 4.26 µM) | MIC ([27]; Staphylococcus aureus, N64): > 100 µg/mL

Gentamycin [GM]
MIC ([1]; strain TST-75, agar dilution, Mueller Hinton medium, 10^6 CFU/ml): > 100 µg/mL | MIC ([2]; strain N62, agar dilution, Mueller Hinton medium, 10^6 CFU/ml): 3.13 µg/mL | MIC ([3]; strain N247-21, agar dilution, Mueller Hinton medium, 10^6 CFU/ml): 50 µg/mL | MIC ([4]; strain FDA 209P, agar dilution, Mueller Hinton medium, 10^6 CFU/ml): ≤ 0.20 µg/mL | MIC ([5]; strain N262, agar dilution, Mueller Hinton medium, 10^6 CFU/ml): 50 µg/mL | MIC ([6]; strain C3, agar dilution, Mueller Hinton medium, 10^6 CFU/ml): 100 µg/mL | MIC ([7]; strain C10, agar dilution, Mueller Hinton medium, 10^6 CFU/ml): > 100 µg/mL | MIC ([8]; strain N83, agar dilution, Mueller Hinton medium, 10^6 CFU/ml): ≤ 0.20 µg/mL | MIC ([9]; strain N235, agar dilution, Mueller Hinton medium, 10^6 CFU/ml): > 100 µg/mL | MIC ([10]; strain N247, agar dilution, Mueller Hinton medium, 10^6 CFU/ml): 50 µg/mL | MIC ([11]; strain N326, agar dilution, Mueller Hinton medium, 10^6 CFU/ml): > 100 µg/mL | MIC ([12]; strain N129, agar dilution, Mueller Hinton medium, 10^6 CFU/ml): 50 µg/mL | MIC ([13]; strain N176-3, agar dilution, Mueller Hinton medium, 10^6 CFU/ml): 0.39 µg/mL | MIC ([14]; strain N176-6, agar dilution, Mueller Hinton medium, 10^6 CFU/ml): 0.39 µg/mL | MIC ([15]; strain N91, agar dilution, Mueller Hinton medium, 10^6 CFU/ml): 0.39 µg/mL | MIC ([16]; strain N237, agar dilution, Mueller Hinton medium, 10^6 CFU/ml): > 100 µg/mL | MIC ([17]; strain C7, agar dilution, Mueller Hinton medium, 10^6 CFU/ml): > 100 µg/mL | MIC ([18]; strain N267, agar dilution, Mueller Hinton medium, 10^6 CFU/ml): 100 µg/mL | MIC ([19]; strain N176, agar dilution, Mueller Hinton medium, 10^6 CFU/ml): 0.39 µg/mL | MIC ([20]; strain C4, agar dilution, Mueller Hinton medium, 10^6 CFU/ml): 50 µg/mL | MIC ([21]; strain N121, agar dilution, Mueller Hinton medium, 10^6 CFU/ml): > 100 µg/mL | MIC ([22]; strain TS-65, agar dilution, Mueller Hinton medium, 10^6 CFU/ml): 100 µg/mL | MIC ([23]; strain N8, agar dilution, Mueller Hinton medium, 10^6 CFU/ml): ≤ 0.20 µg/mL | MIC ([24]; strain N51, agar dilution, Mueller Hinton medium, 10^6 CFU/ml): 0.39 µg/mL | MIC ([25]; strain N28, agar dilution, Mueller Hinton medium, 10^6 CFU/ml): 0.39 µg/mL | MIC ([26]; strain N247-16, agar dilution, Mueller Hinton medium, 10^6 CFU/ml): 100 µg/mL | MIC ([27]; strain N64, agar dilution, Mueller Hinton medium, 10^6 CFU/ml): 0.78 µg/mL

COc1cccc(OC)c1C(=O)N[C@@H]1C(=O)N2[C@@H]1SC(C)(C)[C@@H]2C(=O)O [DMPPC, Methicillin]
MIC ([1]; Staphylococcus aureus, TST75, strain TST-75, agar dilution, Mueller Hinton medium, 10^6 CFU/ml, read-out: MIC): 12.5 µg/mL (≈ 32.9 µM) | MIC ([2]; Staphylococcus aureus, strain N62, agar dilution, Mueller Hinton medium, 10^6 CFU/ml, read-out: MIC): 3.13 µg/mL (≈ 8.23 µM) | MIC ([3]; Staphylococcus aureus, N24721, strain N247-21, agar dilution, Mueller Hinton medium, 10^6 CFU/ml, read-out: MIC): 200 µg/mL (≈ 526 µM) | MIC ([4]; Staphylococcus aureus, FDA209P, strain FDA 209P, agar dilution, Mueller Hinton medium, 10^6 CFU/ml, read-out: MIC): 1.56 µg/mL (≈ 4.1 µM) | MIC ([5]; Staphylococcus aureus, strain N262, agar dilution, Mueller Hinton medium, 10^6 CFU/ml, read-out: MIC): 100 µg/mL (≈ 263 µM) | MIC ([6]; Staphylococcus aureus, strain C3, agar dilution, Mueller Hinton medium, 10^6 CFU/ml, read-out: MIC): 50 µg/mL (≈ 131 µM) | MIC ([7]; Staphylococcus aureus, strain C10, agar dilution, Mueller Hinton medium, 10^6 CFU/ml, read-out: MIC): 800 µg/mL (≈ 2100 µM) | MIC ([8]; Staphylococcus aureus, strain N83, agar dilution, Mueller Hinton medium, 10^6 CFU/ml, read-out: MIC): 3.13 µg/mL (≈ 8.23 µM) | MIC ([9]; Staphylococcus aureus, strain N235, agar dilution, Mueller Hinton medium, 10^6 CFU/ml, read-out: MIC): 1.56 µg/mL (≈ 4.1 µM) | MIC ([10]; Staphylococcus aureus, strain N247, agar dilution, Mueller Hinton medium, 10^6 CFU/ml, read-out: MIC): 50 µg/mL (≈ 131 µM) | MIC ([11]; Staphylococcus aureus, strain N326, agar dilution, Mueller Hinton medium, 10^6 CFU/ml, read-out: MIC): 1600 µg/mL (≈ 4210 µM) | MIC ([12]; Staphylococcus aureus, strain N129, agar dilution, Mueller Hinton medium, 10^6 CFU/ml, read-out: MIC): 400 µg/mL (≈ 1050 µM) | MIC ([13]; Staphylococcus aureus, N1763, strain N176-3, agar dilution, Mueller Hinton medium, 10^6 CFU/ml, read-out: MIC): 50 µg/mL (≈ 131 µM) | MIC ([14]; Staphylococcus aureus, N1766, strain N176-6, agar dilution, Mueller Hinton medium, 10^6 CFU/ml, read-out: MIC): 200 µg/mL (≈ 526 µM) | MIC ([15]; Staphylococcus aureus, strain N91, agar dilution, Mueller Hinton medium, 10^6 CFU/ml, read-out: MIC): 1.56 µg/mL (≈ 4.1 µM) | MIC ([16]; Staphylococcus aureus, strain N237, agar dilution, Mueller Hinton medium, 10^6 CFU/ml, read-out: MIC): 20 µg/mL (≈ 52.6 µM) | MIC ([17]; Staphylococcus aureus, strain C7, agar dilution, Mueller Hinton medium, 10^6 CFU/ml, read-out: MIC): 50 µg/mL (≈ 131 µM) | MIC ([18]; Staphylococcus aureus, strain N267, agar dilution, Mueller Hinton medium, 10^6 CFU/ml, read-out: MIC): 100 µg/mL (≈ 263 µM) | MIC ([19]; Staphylococcus aureus, strain N176, agar dilution, Mueller Hinton medium, 10^6 CFU/ml, read-out: MIC): 12.5 µg/mL (≈ 32.9 µM) | MIC ([20]; Staphylococcus aureus, strain C4, agar dilution, Mueller Hinton medium, 10^6 CFU/ml, read-out: MIC): 50 µg/mL (≈ 131 µM) | MIC ([21]; Staphylococcus aureus, strain N121, agar dilution, Mueller Hinton medium, 10^6 CFU/ml, read-out: MIC): 50 µg/mL (≈ 131 µM) | MIC ([22]; Staphylococcus aureus, TS65, strain TS-65, agar dilution, Mueller Hinton medium, 10^6 CFU/ml, read-out: MIC): > 1600 µg/mL | MIC ([23]; Staphylococcus aureus, strain N8, agar dilution, Mueller Hinton medium, 10^6 CFU/ml, read-out: MIC): 1.56 µg/mL (≈ 4.1 µM) | MIC ([24]; Staphylococcus aureus, strain N51, agar dilution, Mueller Hinton medium, 10^6 CFU/ml, read-out: MIC): 1.56 µg/mL (≈ 4.1 µM) | MIC ([25]; Staphylococcus aureus, strain N28, agar dilution, Mueller Hinton medium, 10^6 CFU/ml, read-out: MIC): 1600 µg/mL (≈ 4210 µM) | MIC ([26]; Staphylococcus aureus, N24716, strain N247-16, agar dilution, Mueller Hinton medium, 10^6 CFU/ml, read-out: MIC): > 1600 µg/mL | MIC ([27]; Staphylococcus aureus, strain N64, agar dilution, Mueller Hinton medium, 10^6 CFU/ml, read-out: MIC): 1600 µg/mL (≈ 4210 µM)
